From the METLIN SMRT retention time set (Domingo-Almenara et al. 2019)

assay: gradient 5% acetonitrile 3 min, to 50% in 2 min, to 85% in 15 min, held 3 min, 100 µL/min; settings: column: Zorbax Extend-C18 2.1 x 50 mm; eluents: water / acetonitrile, 0.1% formic acid
Outline: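 Pure standards were analyzed in mixtures of ~100 molecules using HPLC coupled to a quadrupole time-of-flight mass spectrometer, in both positive and negative ionization mode. Separation used a Zorbax Extend-C18 column (2.1 × 50 mm, 1.8 μm) at 100 μL/min, with water and acetonitrile each containing 0.1% formic acid. Dead and dwell volumes were 40 μL and 900 μL, and data were collected over 3 months. Retention time was read from computationally picked adduct peaks, each inspected manually.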

SMILES	RP-LC retention time
COc1ccc(-c2csc(NC(=O)CCn3c(=O)sc4ccccc43)n2)cc1	982 s
CCOC(=O)c1csc(NC(=O)c2ccc3c(c2)OCCO3)n1	782 s
CCc1ccc(-n2cc(C(=O)OCC(=O)OC)c3ccccc3c2=O)cc1	1080 s
CC(C)CNc1ccc2nncn2n1	644 s
O=c1c2ccccc2c(-c2nc(-c3ccncc3)no2)cn1-c1ccc(Cl)cc1	1140 s
COc1ccc(NC(=O)C2CC(=O)N(c3ccc4c(c3)CCN4C(=O)C3CC3)C2)c(C)c1 (configuration not stated)	740 s
COc1c(C(=O)NCCN2CCCCC2C)sc2ccc(Cl)cc12 (configuration not stated)	716 s
O=S(=O)(c1ccc2nncn2c1)N(Cc1ccc(F)cc1)c1ccc(F)cc1	861 s
Cc1nnc(CNC(=O)C(=O)Nc2ccc3c(c2)OCCO3)o1	615 s
CCOc1cc(C(=O)NC(C)C(=O)Nc2nc3ccccc3[nH]2)cc(OCC)c1OCC (configuration not stated)	745 s
Cc1cc(F)ccc1NC(=O)c1n[nH]nc1Nc1ccc(F)cc1	923 s
Cc1cccc(CNC(=O)c2ccc3c(c2)CC(=O)N3C)c1	742 s
CCOC(=O)C1CCN(C(=O)CN2C(=O)C3CCCCN3c3ccc(C(=O)N(C)C)cc32)CC1 (configuration not stated)	732 s
COc1ccc(-c2ncc3c(n2)CCN(C(=O)c2ccccc2C(F)(F)F)C3)cc1	983 s
CCCC(=O)Nc1cnc(-c2ccc(Cl)cc2)nc1	958 s
CCc1cccc(C)c1Nc1c(-c2ccc(OC)cc2)nc2ncccn12	788 s
Cc1c(Cl)cccc1Nc1c(-c2ccc(Cl)cc2)nc2cnccn12	1120 s
Cc1noc([C@@H]2CC(F)(F)CN2C(=O)CCc2c(C)noc2C)n1	718 s
Cc1c(C2CCN(C(=O)c3ccc4c(c3)OCO4)CC2)noc1N	663 s
CC(C)C(=O)Nc1cccn2nc(C3CCC3)nc12	802 s
CCNc1cc(N2CCCC(CCC(=O)NCCN3CCCCCC3)C2)ncn1 (configuration not stated)	550 s
Cc1cccc2c(C(N)=O)cc(-c3ccccc3)nc12	904 s

SMILES	RP-LC retention time
Cc1cc(C)cc(C(=O)NC2CCN(c3cc(-c4ccc(Cl)cc4)[nH]n3)C2)c1 (configuration not stated)	883 s
Cc1csc(-c2cn(CC(=O)Nc3ccc(C)c(C)c3)cn2)n1	722 s
Cn1cc(C(=O)N2CCCC2Cc2noc(C3CCCC3)n2)cn1 (configuration not stated)	750 s
CCOc1ccc(Nc2nc(C(=O)Nc3ccc(S(N)(=O)=O)cc3)cs2)cc1	761 s
Cc1nnc(-c2c(S(=O)(=O)NC3CCCCCC3)c(C)n(C)c2C)o1	900 s
O=C(CCn1c(=O)sc2ccccc21)Nc1nc(-c2ccc(Br)cc2)cs1	1120 s
Cc1ccc2ccc3ccc(C)nc3c2n1	589 s
CC1CCCN(C(=O)C2CC(=O)N(c3ccc4c(c3)CCN4C(=O)C3CC3)C2)C1 (configuration not stated)	758 s
COc1ccc(NC(=O)c2c(F)cccc2F)c([N+](=O)[O-])c1	831 s
Cc1ccc(NC(=O)Cn2c(C)nc3c(sc4nc(-c5ccccc5)ccc43)c2=O)c(C)c1	1090 s
Cc1ccc(-c2nc3ncccn3c2Nc2ccc(C)cc2C)cc1	838 s
CN(C)c1ccc(NC(=O)c2ccco2)cc1	532 s
Cc1cc(NC(=O)COc2coc(CN3CCN(C(=O)c4ccco4)CC3)cc2=O)no1	549 s
COC(=O)c1c(C)[nH]c(C(=O)N2CCC(CC(=O)NCC3CCCO3)CC2)c1C (configuration not stated)	632 s
Cn1cc(-c2ccncc2)c(-c2ccc(OCc3ccc4ccccc4n3)cc2)n1	717 s
O=C(NCc1ccco1)c1cccc2c1CCN2C(=O)c1ccc(F)cc1	836 s
Cc1cccc(-n2ccnc2SCC(=O)Nc2nccs2)c1C	670 s
CN(C)[C@@H]1CN(Cc2ccc(F)c(F)c2)CC[C@@H]1CO	434 s
CCOC(=O)c1cc2ccsc2n1CC(=O)Nc1ccc(F)c(F)c1	1020 s
CCOC(=O)c1c(C)[nH]c(C(=O)N2CCCC(C(=O)NCCN3CCOCC3)C2)c1C (configuration not stated)	593 s
CC(NC(=O)Cc1nnc(-c2cnccn2)o1)c1ccc(F)cc1 (configuration not stated)	681 s
Cc1ccc(C)c(CNC(=O)C2CCc3nc(N4CCOCC4)ncc3C2)c1 (configuration not stated)	888 s

Other lines, results leading:

RP-LC retention time	SMILES
558 s	Cn1ccc(CN2CCN(Cc3cccc(F)c3)CC2)cc1=O
621 s	O=C(Nc1ccccc1F)NC1CCCN(c2cc(-c3ccncc3)[nH]n2)C1 (configuration not stated)
753 s	CCN(CC)S(=O)(=O)c1ccc2c(c1)N(CC(=O)NC)C(=O)C1CCCCN21 (configuration not stated)
717 s	Nc1cc(C2CCN(C(=O)Nc3ccc(Cl)cc3F)CC2)no1
645 s	O=C(NCCn1cnc2cc(C(=O)N3CCCC3)ccc21)Nc1ccc2c(c1)CCC2
609 s	O=C(Cc1nnc2c(-c3nc(C4CC4)no3)cccn12)N1CCOCC1
891 s	O=c1n(Cc2ccccc2F)nc2c(S(=O)(=O)N3CCCCC3)cccn12
797 s	Cc1ccc(Nc2nc(C)cc(N3CCN(S(=O)(=O)c4cc(F)ccc4F)CC3)n2)cc1
618 s	O=C(Cn1cnc2nc(N3CCC(C(=O)NC4CC4)CC3)sc2c1=O)NCc1cccs1
725 s	COc1ccccc1C(=O)N1CCC2(CC1)NC(=O)c1ccc(F)cc1N2C
713 s	O=C(Cc1cccc(F)c1)N1CCC2(C1)C(=O)Nc1ccccc12 (configuration not stated)
758 s	O=C(NCC1CCN(C(=O)COc2ccccc2)CC1)c1ccc(F)c(F)c1
735 s	Cc1cc2n(n1)CCCN2C(=O)CCC(=O)Nc1ccc(Br)cc1F
747 s	CCSc1nnc(-c2nn(C)c3c2CN(C(=O)c2ccccc2Cl)CC3)n1C
936 s	Cc1[nH]nc(-c2cc(S(=O)(=O)NCC(C)c3ccccc3)c(C)s2)c1C (configuration not stated)
826 s	Cc1cc2nn(CC(=O)Nc3c(C)cccc3C)c(=O)n2c(-c2ccc(F)cc2)n1
686 s	COc1cc(=O)n2c(c1C(=O)NC1CCc3ccccc31)CCCC2 (configuration not stated)
707 s	O=C(NCc1cc(F)cc(F)c1)C1CCCN(c2cnc3nccnc3c2)C1 (configuration not stated)
775 s	COc1cccc(N2CCN(C(=O)Cn3ccc4c(SCc5ccccc5)nccc43)CC2)c1
839 s	CCOC(=O)c1cccc(NC2=NS(=O)(=O)c3ccccc32)c1
865 s	CCc1ccc(C2=C(C)C(N3CCCN(C(=O)NC4CCCC4)CC3)=NS2(=O)=O)cc1
688 s	Cc1ccc(C(=O)N2CCN(c3nc(CN4CCC(C)CC4)cs3)CC2)cc1F
729 s	O=C(NCc1csc(C2CCN(C(=O)c3ccc(F)cc3F)CC2)n1)C1CCC1
581 s	CC1=C(c2ccc(C)cc2)S(=O)(=O)N=C1N1CCCN(C(=O)C2CC2)CC1

RP-LC retention time	SMILES
921 s	CCCn1cc(S(=O)(=O)Nc2ccc(C)c(F)c2)c2cccnc21
549 s	O=C(NC1CCN(Cc2ccccc2)CC1)c1ccccc1Cl
637 s	CC(C)CN1CCN(S(=O)(=O)c2ccc(-c3nnc(C4CC4)o3)o2)CC1
806 s	COCc1cc(=O)n(Cc2cccc(F)c2)c(N2CCCC2)n1
954 s	CS(=O)(=O)N1CCC(C(=O)Nc2cccc(Cl)c2)Oc2ccccc21 (configuration not stated)
1090 s	O=S(=O)(Cc1ccc(Cl)cc1)N1CCc2nc(-c3ccccc3)ncc2C1
824 s	O=c1n(Cc2ccccc2Cl)nc2ccc(S(=O)(=O)N3CCOCC3)cn12
1200 s	CC(C)Oc1ccc(-c2noc(CN3C(=O)C(C)Oc4ccccc43)n2)cc1 (configuration not stated)
557 s	CC1CCCCN1CCNC(=O)c1csc(-c2ccc(N3CCCC3)nc2)n1 (configuration not stated)
812 s	COc1ccc(-c2ccc(=O)n(CCCNC(=O)c3ccc(S(N)(=O)=O)cc3)n2)cc1
1050 s	O=C(NC1CCCCCC1)c1nc(Cn2c(=O)oc3ccc(Cl)cc32)no1
654 s	O=c1ccc(N2CCCC(NS(=O)(=O)Cc3ccccc3)C2)n[nH]1 (configuration not stated)
616 s	CCN(CC)S(=O)(=O)c1ccc2c(c1)nnn2CCC(=O)N1CCN(c2ccccn2)CC1
942 s	Cn1cc(SCC(=O)N2CCCc3ccccc32)c2ccccc21
686 s	c1ccc(-c2cc(N3CCOCC3)n[nH]2)cc1
1000 s	Cc1cc(-c2ccc3c(c2)CCN3C(=O)Cc2ccc(F)cc2)on1
597 s	Oc1ccccc1Nc1ccccn1
610 s	O=C(NCCCN1CCOCC1)c1cc(-c2ccccc2)nc2n[nH]c(-c3ccccc3)c12
715 s	CN1CCN(C(=O)Cn2cccc2-c2nc(-c3ccc(Cl)cc3)cs2)CC1
654 s	Cn1ccc2cc(S(=O)(=O)N3CCCC(C(=O)NCCN4CCCCC4)C3)ccc21 (configuration not stated)
836 s	Cc1noc(C)c1C1CCCN1C(=O)Nc1ccccc1Br (configuration not stated)
1060 s	CCn1cc2c3c(cccc31)CN(C(=O)Nc1cccc(Cl)c1F)CC2
783 s	COc1ccc(S(=O)(=O)N2CCC(n3cnnc3-c3ccccc3)CC2)cc1
645 s	O=C(NCc1ccc(F)cc1)C1CCN(c2nnc3c(Cl)cccn23)CC1
